We go through seven compounds from patent US11584744B2 (UNIVERSITY OF WASHINGTON, priority 2017, dated 2023).

Converted amounts (≈) assume the structure as drawn. “And” between values parts separate entries of the source, which are not always exact repeats. Equal values may be shown once. Read-outs that look alike come from different tables or passages of the source. A value given as a limit tells only on which side of the number the result lay.

Data set [1] addresses recombinant S. aureus MetRS enzyme (Staphylococcus aureus, UniProt A0A0H2XID2). Kind of data set: Inhibition of SaMetRS, ATP depletion assay. The data set is classed as biochemical. The procedure, abridged: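 IC50 values come from sigmoidal fits of percent inhibition, based on ATP left after 120 min as measured by Kinase-Glo. Substrates were 20 μM L-methionine and 150 nM ATP, added after compounds sat 15 min at room temperature with 25 nM His-tagged SaMetRS, bulk E. coli tRNA, pH 7.9 HEPES buffer and 2% DMSO.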

The next data set relates to E. faecalis (ATCC 29212). Briefly: MIC susceptibility testing. The data set is classed as cell-based. The conditions noted are these: Enterococcus faecalis, ATCC29212; read-out: E. faecalis (ATCC 29212) MIC.
Another data set concerns E. faecium (ATCC 19434). Kind of data set: MIC susceptibility testing. The data set is classed as cell-based. The conditions noted are these: Enterococcus faecium, ATCC19434; read-out: E. faecium (ATCC 19434) MIC. The procedure, abridged:
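CLSI broth microdilution with two-fold compound dilutions, in triplicate; cells added in medium at 1×10^6 CFUs/mL, DMSO ≤0.5%. Media: MHB for S. aureus, CA-MHB for E. coli and E. faecium, CA-MHB plus 3% laked horse blood for S. pyogenes (5% CO2).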

Data set [2] deals with S. epidermidis (ATCC 12228). Kind of data set: MIC susceptibility testing. The data set is classed as cell-based. As to conditions: Staphylococcus epidermidis, ATCC12228; read-out: S. epidermidis (ATCC 12228) MIC.
Data set [3] relates to S. epidermidis (ATCC 49134). Kind of data set: MIC susceptibility testing. The data set is classed as cell-based. The conditions noted are these: Staphylococcus epidermidis, ATCC49134; read-out: S. epidermidis (ATCC 49134) MIC.
The next data set has as its system S. pyogenes (ATCC 19615). Briefly: MIC susceptibility testing. The data set is classed as cell-based. The conditions noted are these: Streptococcus pyogenes.
For a further data set, the system named is S. aureus. Kind of data set: Serum shift assays (MIC with and without 50% human serum). The data set is classed as cell-based, Staphylococcus aureus. As to conditions: for MIC: Staphylococcus aureus. The procedure, abridged: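 MICs run in triplicate with and without 50% heat-inactivated pooled human serum in MHB. Threefold compound dilutions (≤0.5% DMSO), inoculum from 1*10^8 CFUs/mL diluted 1:100, incubated ~20 h at 37° C. MIC = lowest concentration giving ≥90% growth inhibition.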

Data set [4] in a line: Protein binding assays, equilibrium dialysis. The data set is classed as in vitro ADME, mouse. The conditions noted are these: 1 μM, equilibrium dialysis 22 hours. Here is the method: Protein binding assays: Compound binding to mouse plasma proteins was determined using 96-well equilibrium dialyzer plates (SDIS 9610EN, Nest Group, Inc.). Mouse plasma ([…]-SW-F, BioreclamationIVT, Westbury, N.Y.) containing compound (final concentration 1 μM) was added to a donor chamber as a 150 μL volume. The buffer solution (0.2 mM phosphate buffer, 150 μL) was added to the reciprocal acceptor chamber. Each compound was tested in triplicate. To prepare calibration solution for compound quantifications, blank wells were prepared containing only mouse plasma in a donor well and buffer solution in its acceptor well. The equilibrium dialysis was carried out by rocking the plate for 22 hours in 37° C. Once equilibrium was reached, the plasma and buffer solution from both wells were carefully removed for further analysis with liquid chromatography-tandem mass spectrometry. Plasma solution and internal standard were mixed in the presence of 80% acetonitrile. After centrifuging the solution, the supernatant was transferred to an insert. Similarly, the buffer solution from the acceptor side was prepared containing 40% acetonitrile. Calibration standards for donor and acceptor sides were prepared with compound concentrations of 50 nM, 100 nM, 250 nM, 500 nM, and 1 μM. The compound concentrations from each well were calculated from the calibration curves using Microsoft Excel. The percentage of the test compound bound was determined as follows: % Free=(Concentration buffer chamber/Concentration plasma chamber)×100% % Bound=100%−% Free
For orientation: Equilibrium dialysis compares concentrations on both sides of a semipermeable membrane.

The mark [5] stands for this setting: recombinant enzyme, lower limit of detection 0.025 μM, read-out: MetRS S. aureus (enzyme) IC50.
The mark [6] stands for this setting: ATCC19615, 18 h, medium with 3% laked horse blood, read-out: S. pyogenes (ATCC 19615) MIC.
Setting [7] is: 50% human serum, read-out: Avg MIC ± SEM (+50% serum).
Setting [8] is: no serum, read-out: Avg MIC ± SEM (no serum).
Where [9] appears, read: read-out: (B) MetRS (S. aureus) IC50.
Setting [10] is: ATCC19615, S. pyogenes ATCC 19615, read-out: (H) S. pyogenes (ATCC 19615) MIC.

Sequence of recombinant S. aureus MetRS enzyme (A0A0H2XID2 2-657): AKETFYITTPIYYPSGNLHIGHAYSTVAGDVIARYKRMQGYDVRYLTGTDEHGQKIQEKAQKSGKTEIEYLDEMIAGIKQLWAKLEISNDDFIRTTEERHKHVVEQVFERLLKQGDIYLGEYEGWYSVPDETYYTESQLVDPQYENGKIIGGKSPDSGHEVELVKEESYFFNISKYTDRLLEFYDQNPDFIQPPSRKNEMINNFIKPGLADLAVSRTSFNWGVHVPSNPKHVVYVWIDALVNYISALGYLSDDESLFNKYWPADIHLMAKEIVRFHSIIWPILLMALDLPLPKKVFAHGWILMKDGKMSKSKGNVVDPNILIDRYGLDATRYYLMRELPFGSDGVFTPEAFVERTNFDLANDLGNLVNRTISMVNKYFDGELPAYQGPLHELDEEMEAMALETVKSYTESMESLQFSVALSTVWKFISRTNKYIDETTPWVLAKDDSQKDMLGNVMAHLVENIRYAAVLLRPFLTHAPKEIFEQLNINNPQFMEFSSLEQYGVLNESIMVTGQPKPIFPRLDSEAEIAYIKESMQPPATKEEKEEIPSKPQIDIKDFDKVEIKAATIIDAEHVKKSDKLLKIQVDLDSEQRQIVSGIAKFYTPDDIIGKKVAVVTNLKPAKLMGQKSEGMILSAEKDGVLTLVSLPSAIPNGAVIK

With `Fc1ccc2nc(NCCCNCc3cc(Cl)cc(Cl)c3)[nH]c2n1` [Compound 1614, [(3,5-dichlorophenyl)methyl][3-({5-fluoro-3H-imidazo[4,5-b]pyridin-2-yl}amino)propyl]amine], in data set [1] (setting [5]), the IC50 (in general, the point on the concentration scale where inhibition reaches its midpoint) is less than 25 nM. Further, the MIC (as a rule, the lowest concentration found to suppress growth) in the data set on E. faecalis (ATCC 29212) was 1.25 µg/mL (≈ 3.39 µM); in the data set with E. faecium (ATCC 19434) it was 0.625 µg/mL (≈ 1.7 µM); in data set [2] it was 5 µg/mL (≈ 13.6 µM); in data set [3], 10 µg/mL (≈ 27.2 µM); in the data set on S. pyogenes (ATCC 19615) (setting [6]), more than 10 µg/mL; in the data set on S. aureus (setting [7]) it was 42.7 ± 4.1 µg/mL. In addition, the minimal inhibitory concentration (MIC) in the data set on S. aureus (setting [8]) was determined as 2.47 ± 0.35 µg/mL. For the same compound, in data set [4], the “% binding to mouse plasma” value is recorded as 96.5%.
Regarding `Fc1ccc2nc(NCCCN[C@@H]3CCNc4c(Cl)cc(Cl)cc43)[nH]c2n1` [Compound 1717, (4R)-6,8-dichloro—N-[3-({5-fluoro-3H-imidazo[4,5-b]pyridin-2-yl}amino)propyl]-1,2,3,4-tetrahydroquinolin-4-amine, reference compound], the IC50 in data set [1] (setting [5]) is less than 25 nM. Besides, the MIC in the data set on E. faecalis (ATCC 29212) is 0.078 µg/mL (≈ 0.191 µM); in the data set with E. faecium (ATCC 19434), 0.039 µg/mL (≈ 0.0953 µM); in data set [2], 0.156 µg/mL (≈ 0.381 µM); in data set [3], 0.313 µg/mL (≈ 0.765 µM); in the data set on S. pyogenes (ATCC 19615) (setting [6]), 2.5 µg/mL (≈ 6.11 µM); with S. aureus (setting [7]) it was approximately 2 µg/mL. Besides, the minimum inhibitory concentration (MIC) with S. aureus (setting [8]) came to 0.088 ± 0.02 µg/mL. The “Avg MIC ± SEM (+50% serum)” value in the data set on S. aureus (50% human serum) was 2.066 ± 0.19 µg/mL. Besides, in data set [4], the “% binding to mouse plasma” value is given as 97.6%.
Regarding `CCn1c(Cc2ccc(Cl)cc2Cl)cn(Cc2nc3nc(F)ccc3[nH]2)c1=O` [Compound 2062, 4-[(2,4-dichlorophenyl)methyl]-3-ethyl-1-({5-fluoro-1H-imidazo[4,5-b]pyridin-2-yl}methyl)-2,3-dihydro-1H-imidazol-2-one], the half-inhibitory concentration (IC50) in data set [1] (setting [9]) and in data set [1] (setting [5]) was less than 25 nM each time. The MIC in the data set on E. faecalis (ATCC 29212) stood at 1.25 µg/mL (≈ 2.97 µM); in the data set with E. faecium (ATCC 19434) it was 0.313 µg/mL (≈ 0.745 µM); in data set [3], 1.25 µg/mL (≈ 2.97 µM); in the data set on S. aureus (setting [7]) it was 11.8 ± 4.03 µg/mL; with S. aureus (setting [8]), 0.057 ± 0.004 µg/mL. In addition, in data set [4], the “% binding to mouse plasma” value is 99.4%.
For the compound `CCn1c(Cc2ccc(OC)cc2Cl)cn(Cc2nc3nc(Cl)ccc3[nH]2)c1=O` [Compound 2093, 1-({5-chloro-1H-imidazo[4,5-b]pyridin-2-yl}methyl)-4-[(2-chloro-4-methoxyphenyl)methyl]-3-ethyl-2,3-dihydro-1H-imidazol-2-one], the IC50 in data set [1] (setting [9]) and in data set [1] (setting [5]) was less than 25 nM in each case. Also, the minimum inhibitory concentration (MIC) with E. faecalis (ATCC 29212) stood at 0.156 µg/mL (≈ 0.361 µM); in the data set on E. faecium (ATCC 19434) it was 0.078 µg/mL (≈ 0.18 µM); in data set [2], 0.625 µg/mL (≈ 1.45 µM); in data set [3], 1.25 µg/mL (≈ 2.89 µM); with S. pyogenes (ATCC 19615) (setting [6]) it was 1.25 µg/mL (≈ 2.89 µM); with S. pyogenes (ATCC 19615) (setting [10]), 0.678 µg/mL (≈ 1.57 µM). In addition, the minimal inhibitory concentration (MIC) stood at 9.59 ± 1.71 µg/mL in the data set with S. aureus (setting [7]) and 0.036 ± 0.01 µg/mL in the data set on S. aureus (setting [8]). Also, the “% binding to mouse plasma” value in data set [4] is recorded as 99.9%.
`CCn1c(Cc2ccc(OC)cc2Cl)cn(Cc2nc3nc(F)ccc3[nH]2)c1=O` [Compound 2114, 4-[(2-chloro-4-methoxyphenyl)methyl]-3-ethyl-1-({5-fluoro-1H-imidazo[4,5-b]pyridin-2-yl}methyl)-2,3-dihydro-1H-imidazol-2-one]: the IC50 in data set [1] (setting [9]) and in data set [1] (setting [5]) was less than 25 nM throughout. Besides, the MIC in the data set on E. faecalis (ATCC 29212) is 0.625 µg/mL (≈ 1.5 µM); in the data set on E. faecium (ATCC 19434), 0.078 µg/mL (≈ 0.188 µM); in data set [2], 1.25 µg/mL (≈ 3.01 µM); in data set [3] it was 1.25 µg/mL (≈ 3.01 µM); in the data set on S. pyogenes (ATCC 19615) (setting [10]), 0.754 µg/mL (≈ 1.81 µM).
As for `COc1cc(Cl)c(-c2cccc3nc(Cc4nc5nc(Cl)ccc5[nH]4)cn23)cc1OC` [Compound 2144, 2-({5-chloro-1H-imidazo[4,5-b]pyridin-2-yl}methyl)-5-(2-chloro-4,5-dimethoxyphenyl)imidazo[1,2-a]pyridine], the 50% inhibitory concentration (IC50) in data set [1] (setting [9]) and in data set [1] (setting [5]) was less than 25 nM throughout. For the same compound, the MIC with E. faecalis (ATCC 29212) is 0.0195 µg/mL (≈ 0.0429 µM); in the data set with E. faecium (ATCC 19434), 0.0195 µg/mL (≈ 0.0429 µM); in data set [2], 0.156 µg/mL (≈ 0.343 µM); in data set [3], 0.313 µg/mL (≈ 0.689 µM); in the data set with S. pyogenes (ATCC 19615) (setting [6]), 1.25 µg/mL (≈ 2.75 µM); in the data set on S. aureus (setting [7]), approximately 2 µg/mL. For the same compound, in the data set on S. aureus (setting [8]), the minimum inhibitory concentration (MIC) was determined as 0.036 ± 0.01 µg/mL. In addition, the “Avg MIC ± SEM (+50% serum)” value in the data set with S. aureus (50% human serum) is 2.06 µg/mL and 2.055 ± 0.51 µg/mL. Moreover, in data set [4], the “% binding to mouse plasma” value was found to be 98.4%.
With `CC(=O)NC[C@H]1CN(c2ccc(N3CCOCC3)c(F)c2)C(=O)O1` [LNZ, linezolid], in data set [1] (setting [5]), the IC50 was more than 10000 nM. Further, the MIC in the data set on E. faecalis (ATCC 29212) came to 2.5 µg/mL (≈ 7.41 µM); in the data set with E. faecium (ATCC 19434), 2.5 µg/mL (≈ 7.41 µM); in data set [2], 0.625 µg/mL (≈ 1.85 µM); in data set [3], 0.625 µg/mL (≈ 1.85 µM); with S. pyogenes (ATCC 19615) (setting [6]), 1.25 µg/mL (≈ 3.71 µM); with S. aureus (setting [7]), 1.89 ± 0.1 µg/mL. Moreover, in the data set with S. aureus (setting [8]), the MIC came out at 1.57 ± 0.1 µg/mL. Moreover, the “% binding to mouse plasma” value in data set [4] amounted to 39.5%.
